# Test results from paper PMC10157211, “Four new suomilides isolated from the cyanobacterium Nostoc sp. KVJ20 and proposal of their biosynthetic origin” (Frontiers in Microbiology, 2023).
# Assays:
# [1] = Dissolution of isolated fractions in solvent; format: physicochemical
# Procedure: Compounds 1–4 were isolated using mass-guided fractionation on preparative HPLC from 29.4 g dry mass of lyophilizated cyanobacteria from 10 L of culture. For the first purification step, the compounds were separated using a C18 reversed phase column. The collected fractions were reduced to dryness at 40°C in vacuo. […] The yields were: 1: 9.8 mg; 2: 4.1 mg; 3: 5.9 mg; 4: 2.6 mg.
# trypsin = conditions: ref Pluotno and Carmeli, 2005; cited from earlier work
# Description: (§1) Compounds 5 and 6 were originally isolated via bioassay guided purification using a serine-protease inhibition assay when they were discovered in 2005 ([Pluotno and Carmeli, 2005]). The two banyasides were reported to inhibit the catalytic activity of trypsin. As far as we know, anti-bacterial activity of suomilide have not been reported previously, and the Nostoc sp. strain it has been isolated from was reported as non-toxic. This complies with our results, as no activity could be detected for 1–4 against bacteria or cell lines at high concentrations. Suomilide A has recently been investigate ...
# [2] = test system: cancer cell proliferation; conditions: ref Ahmed et al., 2021; cited from earlier work
# Description: as §1
# prostate cancer cells = conditions: concentration of 3.3 μM; ref Ahmed et al., 2021; cited from earlier work
# Description: as §1
# trypsin-1 = conditions: ref Ahmed et al., 2021; read-out: IC50 trypsin-1 inhibition; cited from earlier work
# Description: as §1
# trypsin-2 = conditions: ref Ahmed et al., 2021; read-out: IC50 trypsin-2 inhibition; cited from earlier work
# Description: as §1
# trypsin-3 = conditions: ref Ahmed et al., 2021, cited from earlier work
# Description: as §1
substance,measurement,setting,value
Suomilide B [Compound 1],solubility in DMSO (qualitative),"[1]; dried HPLC fraction dissolved in DMSO, after extensive shaking",well
same,solubility in methanol (qualitative),[1]; dried HPLC fraction dissolved in methanol,dissolved poorly
banyaside A [Compound 5],inhibition of the catalytic activity of trypsin,trypsin,inhibit
banyaside B [Compound 6],inhibition of the catalytic activity of trypsin,trypsin,inhibit
suomilide [Suomilide A],effect on cancer cell proliferation,[2],no effect
same,inhibition of invasion of prostate cancer cells,prostate cancer cells,inhibit the invasion
same,IC50,trypsin-1,104 nM
same,IC50,trypsin-2,4.7 nM
same,IC50,trypsin-3; read-out: IC50 trypsin-3 inhibition,11.5 nM
same,residence time,trypsin-3; surface plasmon resonance spectroscopy,57 min
